A short description of data set [1]: Preliminary stability examination at 60° C. and 75% humidity. The format is physicochemical. To be noted: 60° C. 75% RH. Here is the method: 1. Preliminary Stability Examination • Examination conditions: The stability of crystalline form A and crystalline form B was simultaneously examined at 60° C. and 75% humidity.
Data set [2] in a line: Accelerated stability test at 40° C.±2° C. and 75±5% RH. The format is physicochemical. To be noted: 40° C. ± 2° C./75 ± 5% RH. Here is the method: 2. Accelerated Test • Examination conditions: Samples of crystalline form A of the compound of formula (I) were packed into double-layer pharmaceutical low-density polyethylene bags. Each layer of the pharmaceutical low-density polyethylene bag was sealed, then the bags were put into aluminum foil bags, and the aluminum foil bags were heat-sealed. Accelerated test was conducted at 40° C.±2° C. and 75±5% RH.

The test system of data set [3] is MDA-MB-436 cells with BRCA1 mutation. The data set is described as follows: Anti-proliferation study on MDA-MB-436 cells (CellTiter-Glo). In kind it is cell-based. To be noted: Homo sapiens, MDA-MB-436, 168 h; 7 days incubation. As for the experimental part:
Materials: test compounds; RPMI-1640 medium; fetal bovine serum; penicillin/streptomycin antibiotic; MDA-MB-436 cells; Envision Multimode Plate Reader (PerkinElmer). MDA-MB-436 cells were seeded in a white 96-well plate by adding 80 μL of cell suspension (containing 3000 MDA-MB-436 cells) to each well. The cell plate was incubated in a CO2 incubator overnight. The test compounds were serially 5-fold diluted to the 8th concentration with a multichannel pipette, i.e., from 2 mM to 26 nM, in duplicate. 78 μL of medium was added to an intermediate plate, and the serially diluted compound was transferred to the intermediate plate at 2 μL per well. After being mixed well, the mixture was transferred to the cell plate at 20 μL per well. […] Another cell plate was provided for reading signal values on the day of compound addition and these signal values were used as Max values in data analysis. Promega CellTiter-Glo was added to the cell plate at 25 μL per well and the luminescence signals were stabilized by incubation for 10 min at room temperature. Readings were taken using a PerkinElmer Envision Multimode Plate Reader. […]
(ATP-based viability assays read luminescence as a measure of living cells.)

Data set [4] can be described thus: Single-dose pharmacokinetic study in mice. In kind it is in vivo, male C57BL/6 mice. As for the experimental part: Objectives: To evaluate the pharmacokinetic behavior in male C57BL/6 mice and to determine the drug concentrations of the compound in the plasma, liver and cerebrospinal fluid after a single dose.
Procedures: Healthy adult male C57BL/6 mice were selected for intragastric administration. The candidate compound was mixed with an appropriate amount of 10% DMSO/90% (20% hydroxypropyl-@-cyclodextrin), vortexed and sonicated to prepare a 0.5 mg/mL clear solution for later use. After the mice were administered intravenously at 1 mg/kg and orally at 5 mg/kg, whole blood was collected at certain time points. Plasma was separated, and liver and cerebrospinal fluid were collected. After pretreatment of the samples, the drug concentration was measured by LC-MS/MS, and pharmacokinetic parameters were calculated using Phoenix WinNonlin software.

Like-named read-outs stand apart in the source and are kept apart here.

Turning to `C[C@]1(c2ccc(-c3[nH]c4cc(F)cc5c4c3CONC5=O)cc2)CCCN1.Cl` [Crystalline form A], in data set [1], the “Preliminary stability examination (content, %) Day 0” value came out at 99.73% and the “Preliminary stability examination (content, %) Day 10” value turned out to be 99.72%. In data set [2] (Initial values), the Appearance result is on record as “Earthy yellow”, the Content turned out to be 98.0%, the Isomer entry is on record as “Not detectable” and the Total impurities is 0.45%. Also, the Water content in data set [2] (Initial values) is 2.07%. Besides, in data set [2] (Month 1), the Appearance result is reported as “Earthy yellow”, the Content was 96.2%, the Isomer result is “Not detectable” and the Total impurities stood at 0.75%. Also, the Water content in data set [2] (Month 1) worked out at 2.50%. In data set [2] (Month 2), the Appearance result is on record as “Earthy yellow”, the Content came out at 96.9%, the Isomer entry is reported as “Not detectable” and the Total impurities amounted to 0.78%. The Water content in data set [2] (Month 2) was 2.26%. In data set [2] (Month 3), the Appearance entry is reported as “Earthy yellow”, the Content stood at 96.9%, the Isomer result is given as “Not detectable” and the Total impurities is listed as 0.62%. Also, the Water content in data set [2] (Month 3) is given as 1.89%. In data set [2] (Month 6), the Appearance result is on record as “Earthy yellow”, the Content is recorded as 97.5%, the Isomer result is on record as “Not detectable” and the Total impurities is on record as 0.93%. The compound further showed a Water content in data set [2] (Month 6) of 2.14%. The same compound displayed an IC50 in data set [3] of 8.4 nM.
Regarding `C[C@]1(c2ccc(-c3[nH]c4cc(F)cc5c4c3CONC5=O)cc2)CCCN1.Cl` [Crystalline form B], in data set [1], the “Preliminary stability examination (content, %) Day 0” value stood at 99.09% and the “Preliminary stability examination (content, %) Day 10” value stood at 98.93%.
`CNCc1ccc(-c2[nH]c3cc(F)cc4c3c2CCNC4=O)cc1` [Rucaparib, reference compound] gave a Maximum concentration in data set [4] (IV: 1 mg/kg PO: 5 mg/kg) of 24.8 nM. In addition, the AUC(0-t) in data set [4] (male, C57BL/6, mouse, plasma, IV 1 mg/kg, read-out: AUC0-last (intravenous injection)) is 0.255 µM·h; in data set [4] (male, C57BL/6, mouse, plasma, PO 5 mg/kg, read-out: AUC0-last (oral)), 0.145 µM·h. For the same compound, the half-life in data set [4] (male, C57BL/6, mouse, plasma, IV: 1 mg/kg PO: 5 mg/kg) was 1.78 h.

As usually defined, the IC50 is the midpoint of a concentration-inhibition curve. A higher IC50 goes with weaker potency. The term half-life denotes how long it takes for the measured level to halve. Low readings indicate rapid decline, high ones slow decline.

The values are drawn from patent publication US20230331739A1, “INDOLO HEPTAMYL OXIME ANALOG CRYSTAL AS PARP INHIBITOR AND METHOD FOR PREPARING SAME” (CHIA TAI TIANQING PHARMACEUTICAL GROUP CO., LTD., priority 2020, published 2023).
